{
  "source": "patent US20020107231A1",
  "about": "“Remedy for autoimmune diseases” (priority 1992, published 2002)",
  "format_in_all_cases": "in vivo, mouse",
  "key": {"MRL/Mp-lpr/lpr mice [1]": {"system": "MRL/Mp-lpr/lpr mice", "test": "Inhibition of swelling of spleen and lymph node of MRL/Mp-lpr/lpr mice", "conditions": "100 mg/kg orally once a day for 13 weeks", "method": "(§1) Eight-week old female MRL/Mp-lpr/lpr mice (Clea Japan, Inc.) were used in this examination. Toremifene citrate (JP-B-4 19973) was suspended in carboxymethylcellulose to prepare a 0.5% suspension. This compound (100 mg/kg) was orally administered to each mouse once a day for 13 weeks."}, "MRL/Mp-lpr/lpr mice [2]": {"system": "MRL/Mp-lpr/lpr mice", "test": "Inhibition of sialadenitis, angitis and arthritis of MRL/Mp-lpr/lpr mice (histopathology)", "conditions": "100 mg/kg orally once a day for 13 weeks", "method": "as §1\nThe salivary gland, renal blood vessel and knee joint of each mouse in the control group and the toremifene citrate treated group were histopathologically examined.\n1) The salivary gland, kidney and knee joint were fixed in 10% buffered formalin, and then paraffin sections thereof were prepared by an ordinary method to prepare HE and PAS stained specimens. The extent of the disorder was scored and classified into the following groups: […]"}, "[3]": {"system": "NZB×NZW mice (B/W F1 mice)", "test": "Comparison of survival time of NZB×NZW F1 mice", "conditions": "for animals alive after one year / animals died at/before the age of 40 weeks / animals still alive after almost two years' time: female mice; for animals alive after one year: female control 20%; for animals died at/before the age of 40 weeks: female control 50% died", "method": "NZB×NZW mice (B/W F1 mice) were used as a pathological model of autoimmune diseases (systemic lupus erythematodes). Effect of toremifene citrate on the survival time of the animals was investigated.\nF1-hybrids of NZB (female) and NZW (male) mice (B/W F1 mice): Imported from Bomholtgaard, Denmark at the age of five weeks.\nToremifene citrate 30 mg/kg/day: administration 70 mg/kg in polyethylene glycol solution 3 times a week per os to female NZB×NZW F1 mice\nToremifene citrate 3 mg/kg/day: administration 7 mg/kg in polyethylene glycol solution 3 times a week per os to female NZB×NZW F1 mice\nAll but two female control animals have died during the almost two years' follow-up time. Fifty percents of the animals in this group died before/at the age of 40 weeks, and 20% (4/20) were alive after one year."}, "MRL/Mp-lpr/lpr mice [4]": {"system": "MRL/Mp-lpr/lpr mice", "test": "Suppression of glomerulonephritis (Mac 2 number per glomerulus) by concomitant use of toremifene citrate with glucocorticoid", "conditions": "for change in Mac 2 number as compared with the control (in words): all dose groups, 9 weeks, t-test", "method": "Twelve-week old female MRL/Mp-lpr/lpr mice were used in the examination. Thirty miligrams per kg or 15 mg/kg of toremifene citrate (TOR) was orally administered to each mouse twice a day for 9 weeks from the 12th week to the 21st week. A glucocorticoid (prednisolone), 8, 4 and 2 mg/kg/day, were subcutaneously administered to mice once a day as a positive control drug. The concomitant use of tremifene with the glucocorticoid was also carried out according to the same regimen as above. The kidney was taken out from each mouse the day after the completion of the whole administration period and fixed in a PLP fixative. Frozen sections were made from the fixed kidney and used for an immunostaining with an anti-Mac-2 monoclonal antibody (Hybritec Inc., San Diego, USA). The number of Mac-2 positive cells (activated macrophages) invading each of 10 to 20 glomeruli of the kidney, which is hereinafter referred to as Mac 2 number, was counted under a microscopy to determine an average Mac 2 number per glomerulus. The degree of severeness of glomerulonephritis was estimated in terms of the average Mac 2 number (n=13 for each group)."}, "MRL/Mp-lpr/lpr mice [5]": {"system": "MRL/Mp-lpr/lpr mice", "test": "Suppression of renal disorder (glomerulonephritis score, BUN) of MRL/Mp-lpr/lpr mice", "conditions": "100 mg/kg orally once a day for 13 weeks", "method": "as §1\nAn autopsy was performed on the mice of the control group and the toremifene citrate treated group after the completion of the administration to examine their kidneys pathohistologically. The blood urea nitrogen (BUN) of the serum in each group was examined to confirm changes in the renal function.\n1) The kidney was fixed in 10% buffered formalin, and then paraffin sections thereof were prepared by an ordinary method to prepare HE and PAS stained specimens. The extent of the disorder of the renal glomeruli was scored and classified into the following groups:\n2) The BUN was determined with a Fuji Dry Chem Analyzer."}, "[6]": {"conditions": "3 mg/kg/day (7 mg/kg 3 times a week per os)"}, "[7]": {"conditions": "30 mg/kg/day (70 mg/kg 3 times a week per os)"}},
  "note": "Counter-ions that a name gives are not always drawn.",
  "data": [
    {"molecule": "CN(C)CCOc1ccc(/C(=C(/CCCl)c2ccccc2)c2ccccc2)cc1", "note": "[Toremifene citrate, 2[4-(Z)-4-Chloro-1,2-Diphenyl-1-Butenyl]Phenoxy-N,N-Dimethylethylamine Citrate]", "values": [
      {"measurement": "swelling of the spleen and lymph node (in words)", "setting": "MRL/Mp-lpr/lpr mice [1]", "result": "inhibited the swelling of the spleen and lymph node"},
      {"measurement": "swelling of spleen ([formula])", "setting": "MRL/Mp-lpr/lpr mice [1]; 8-week old female mice, mean ± standard deviation, control 2.34 ± 0.74", "result": "1.38 ± 1.06"},
      {"measurement": "swelling of lymph node ([formula])", "setting": "MRL/Mp-lpr/lpr mice [1]; 8-week old female mice, mean ± standard deviation, control 6.77 ± 1.70", "result": "3.11 ± 1.43"},
      {"measurement": "attack by sialadenitis, angitis and arthritis (in words)", "setting": "MRL/Mp-lpr/lpr mice [2]", "result": "prevented the mice from being attacked by sialadenitis, angitis and arthritis"},
      {"measurement": "Arthritis (score 0-3)", "setting": "MRL/Mp-lpr/lpr mice [2]; knee joint, mean ± standard deviation, control 1.6 ± 0.9", "result": "0.4 ± 0.5"},
      {"measurement": "Angitis (score 0-3)", "setting": "MRL/Mp-lpr/lpr mice [2]; renal blood vessel, mean ± standard deviation, control 2.1 ± 0.7", "result": "0.9 ± 0.8"},
      {"measurement": "Sialadenitis (score 0-3)", "setting": "MRL/Mp-lpr/lpr mice [2]; salivary gland, mean ± standard deviation, control 2.2 ± 0.6", "result": "0.9 ± 0.8"},
      {"measurement": "animals alive after one year", "setting": "[3]; [6]", "result": 80, "unit": "%"},
      {"measurement": "animals died at/before the age of 40 weeks", "setting": "[3]; [6]", "result": "1/20"},
      {"measurement": "animals alive after one year", "setting": "[3]; [7]", "result": 85, "unit": "%"},
      {"measurement": "animals died at/before the age of 40 weeks", "setting": "[3]; [7]", "result": "3/20"},
      {"measurement": "life span compared to the female control animals (in words)", "setting": "[3]; both treatment groups (3 and 30 mg/kg/day)", "result": "lengthened clearly"},
      {"measurement": "animals still alive after almost two years' time", "setting": "[3]; higher dosage group (30 mg/kg/day)", "result": 10, "unit": "%"},
      {"measurement": "animals still alive after almost two years' time", "setting": "[3]; lower dosage group (3 mg/kg/day)", "result": 25, "unit": "%"},
      {"measurement": "Mac 2 number", "setting": "MRL/Mp-lpr/lpr mice [4]; TOR 15 mg/kg orally twice a day for 9 weeks, first series, control 7.5 ± 1.5", "result": "6.5 ± 1.2"},
      {"measurement": "Mac 2 number", "setting": "MRL/Mp-lpr/lpr mice [4]; TOR 30 mg/kg orally twice a day for 9 weeks, first series, control 7.5 ± 1.5", "result": "6.2 ± 1.0"},
      {"measurement": "change in Mac 2 number as compared with the control (in words)", "setting": "MRL/Mp-lpr/lpr mice [4]", "result": "did not exhibit any significant decrease in Mac 2 number"},
      {"measurement": "glomerulonephritis (in words)", "setting": "MRL/Mp-lpr/lpr mice [5]", "result": "ameliorated the glomerulonephritis"},
      {"measurement": "renal function (in words)", "setting": "MRL/Mp-lpr/lpr mice [5]", "result": "healed the renal function"},
      {"measurement": "Glomerulonephritis (score 0-3, average of 25 renal glomeruli)", "setting": "MRL/Mp-lpr/lpr mice [5]; mean ± standard deviation, control 2.4 ± 0.7", "result": "1.2 ± 0.7"},
      {"measurement": "BUN", "setting": "MRL/Mp-lpr/lpr mice [5]; serum, mean ± standard deviation, control 43.1 ± 23.9", "result": "24.6 ± 4.9", "unit": "mg/dL"}
    ]},
    {"molecule": "C[C@]12C=CC(=O)C=C1CC[C@@H]1[C@@H]2[C@@H](O)C[C@@]2(C)[C@H]1CC[C@]2(O)C(=O)CO", "note": "[Prednisolone, prednisolone]", "values": [
      {"measurement": "change in Mac 2 number as compared with the control (in words)", "setting": "MRL/Mp-lpr/lpr mice [4]", "result": "did not exhibit any significant decrease in Mac 2 number"},
      {"measurement": "Mac 2 number", "setting": "MRL/Mp-lpr/lpr mice [4]; prednisolone 2 mg/kg subcutaneously once a day for 9 weeks, first series, control 7.5 ± 1.5", "result": "9.4 ± 1.0"},
      {"measurement": "Mac 2 number", "setting": "MRL/Mp-lpr/lpr mice [4]; prednisolone 2 mg/kg subcutaneously once a day for 9 weeks, second series, control 11.3 ± 1.2", "result": "7.7 ± 1.0"},
      {"measurement": "Mac 2 number", "setting": "MRL/Mp-lpr/lpr mice [4]; prednisolone 4 mg/kg subcutaneously once a day for 9 weeks, first series, control 7.5 ± 1.5", "result": "7.9 ± 0.7"},
      {"measurement": "Mac 2 number", "setting": "MRL/Mp-lpr/lpr mice [4]; prednisolone 4 mg/kg subcutaneously once a day for 9 weeks, second series, control 11.3 ± 1.2", "result": "9.1 ± 1.4"},
      {"measurement": "Mac 2 number", "setting": "MRL/Mp-lpr/lpr mice [4]; prednisolone 8 mg/kg subcutaneously once a day for 9 weeks, first series, control 7.5 ± 1.5", "result": "5.8 ± 0.8"}
    ]}
  ]
}
